Measurements as given in PubChem BioAssay (NCI).
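Values below derive from 48-hour exposures of cells grown in 96-well plates, with endpoints linearly interpolated between the two concentrations bracketing the appropriate inhibition level. GI50 is the concentration that inhibits growth by half. TGI: concentration producing complete growth inhibition.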

Legend:
Experiment in all cases: NCI-60 cell line screen, 48 h
[1] = system: HS 578T breast
[2] = system: OVCAR-3 ovarian
[3] = system: MALME-3M melanoma
[4] = system: PC-3 prostate
[5] = system: HL-60(TB) leukemia
[6] = system: BT-549 breast
[7] = system: SNB-19 CNS
[8] = system: NCI-H522 lung
[9] = system: NCI-H460 lung
[10] = system: SN12C renal

## NCCC(N)C(=O)O (centres undefined)
[1]
  TGI: > 100 µM
[2]
  TGI: > 100 µM
[3]
  TGI: > 100 µM
[4]
  TGI: > 100 µM
[5]
  TGI: > 100 µM
[6]
  TGI: > 100 µM
[7]
  TGI: > 100 µM
[8]
  TGI: > 100 µM
[9]
  TGI: > 100 µM
[10]
  TGI: > 100 µM

## CC(=O)O[C@H]1CC[C@@]2(C)C(=CC[C@@H]3[C@@H]2CC[C@]2(C)C(c4cccnc4)=CC[C@@H]32)C1
[1]
  GI50: 3.38 µM
  TGI: 71.3 µM
[2]
  GI50: 5.52 µM
  TGI: > 100 µM
[3]
  GI50: 3.24 µM
  TGI: 33.9 µM
[4]
  GI50: 3.98 µM
  TGI: > 100 µM
[5]
  GI50: 7.36 µM
  TGI: > 100 µM
[6]
  GI50: 2.96 µM
  TGI: 17.3 µM
[7]
  GI50: 24.1 µM
  TGI: > 100 µM
[8]
  GI50: 38.5 µM
  TGI: > 100 µM
[9]
  GI50: 5.91 µM
  TGI: > 100 µM
[10]
  GI50: 17.2 µM
  TGI: > 100 µM

## COC(=O)/C=C/c1ccccc1N=[S@](C)(=O)c1ccc(C)cc1
[1]
  TGI: 64.6 µM
[2]
  TGI: 55.8 µM
[3]
  TGI: > 100 µM
[4]
  TGI: > 100 µM
[5]
  TGI: 7.25 µM
[6]
  TGI: > 100 µM
[7]
  TGI: > 100 µM
[8]
  TGI: 7.99 µM
[9]
  TGI: 49.9 µM
[10]
  TGI: > 100 µM

## CC(=O)NNc1nc(C)c(C(/C=C/c2ccc3c(c2)OCO3)=N/Nc2ccccc2)s1
[1]
  TGI: > 100 µM
[2]
  TGI: > 100 µM
[3]
  TGI: > 100 µM
[4]
  TGI: > 100 µM
[5]
  TGI: > 100 µM
[6]
  TGI: > 100 µM
[7]
  TGI: > 100 µM
[8]
  TGI: > 100 µM
[9]
  TGI: > 100 µM
[10]
  TGI: > 100 µM

## COC1C(O)CC(OC2C(C)OC(Oc3cc(O)c4c(O)c5c(cc4c3)C[C@@H]([C@H](OC)C(=O)[C@@H](O)[C@@H](C)O)[C@H](OC3CC(OC4CC(OC6CC(C)(O)C(O)C(C)O6)C(O)C(C)O4)C(O)C(C)O3)C5=O)CC2OC(C)=O)OC1C (some centres undefined)
[1]
  TGI: > 100 µM
[2]
  TGI: > 100 µM
[3]
  TGI: > 100 µM
[4]
  TGI: > 100 µM
[5]
  TGI: > 100 µM
[6]
  TGI: > 100 µM
[7]
  TGI: > 100 µM
[8]
  TGI: > 100 µM
[9]
  TGI: > 100 µM
[10]
  TGI: > 100 µM

## O=C(Nc1sccc1S(=O)(=O)c1ccccc1)c1cccnc1
[1]
  TGI: > 100 µM
[2]
  TGI: > 100 µM
[3]
  TGI: > 100 µM
[4]
  TGI: > 100 µM
[5]
  TGI: 4.28 µM
[6]
  TGI: > 86.1 µM
[7]
  TGI: > 100 µM
[8]
  TGI: > 85.4 µM
[9]
  TGI: > 100 µM
[10]
  TGI: > 100 µM

## Cc1ccc(C(=O)N(C2CCCCC2)C2CCCCC2)cc1N=NN(C)C
[1]
  TGI: 43.9 µM
[2]
  TGI: 19.2 µM
[3]
  TGI: 31 µM
[4]
  TGI: 22.2 µM
[5]
  TGI: 23.7 µM
[6]
  TGI: 26.8 µM
[7]
  TGI: 26.4 µM
[8]
  TGI: 16.7 µM
[9]
  TGI: 35.5 µM
[10]
  TGI: 28.7 µM

## Cc1ccc([N+](=O)[O-])cc1S(=O)(=O)Nc1ccc(C2=NN(c3ccc([N+](=O)[O-])cc3[N+](=O)[O-])C(c3ccccc3)C2)cc1 (centres undefined)
[1]
  TGI: 72 µM
[2]
  TGI: 28.4 µM
[3]
  TGI: 41.6 µM
[4]
  TGI: 28.8 µM
[5]
  TGI: 57.5 µM
[6]
  TGI: 33 µM
[7]
  TGI: 33 µM
[8]
  TGI: 25.9 µM
[10]
  TGI: 33.2 µM

## C=CC[C@H]1[C@@H](O[Si](C)(C)C(C)(C)C)[C@H](n2ccc(=O)[nH]c2=O)O[C@@H]1CO[Si](C)(C)C(C)(C)C
[1]
  TGI: 12.2 µM
[2]
  TGI: 3.12 µM
[3]
  TGI: 9.04 µM
[4]
  TGI: 5.89 µM
[5]
  TGI: 2.59 µM
[6]
  TGI: 7.67 µM
[7]
  TGI: 6.76 µM
[8]
  TGI: 3.93 µM
[9]
  TGI: 4.06 µM
[10]
  TGI: 3.32 µM

## Cc1c(-c2c(C)c3ccccc3n2S(=O)(=O)c2ccccc2)n(S(=O)(=O)c2ccccc2)c2ccccc12
[1]
  TGI: > 100 µM
[2]
  TGI: > 100 µM
[3]
  TGI: 13.1 µM
[4]
  TGI: > 100 µM
[5]
  TGI: > 100 µM
[6]
  TGI: > 100 µM
[7]
  TGI: > 100 µM
[8]
  TGI: > 100 µM
[9]
  TGI: 16.3 µM
[10]
  TGI: > 100 µM

## COc1ccc(CCn2cnc3ccccc32)cc1
[1]
  TGI: > 100 µM
[2]
  TGI: > 100 µM
[3]
  TGI: > 100 µM
[4]
  TGI: > 100 µM
[5]
  TGI: > 100 µM
[6]
  TGI: > 100 µM
[7]
  TGI: > 100 µM
[8]
  TGI: > 100 µM
[9]
  TGI: > 100 µM
[10]
  TGI: > 100 µM

## COc1ccc(N(C(=O)Nc2ccc(Cl)c(Cl)c2)c2ccccc2)cc1
[1]
  TGI: > 10 µM
[2]
  TGI: > 10 µM
[3]
  TGI: > 10 µM
[4]
  TGI: > 10 µM
[5]
  TGI: > 10 µM
[6]
  TGI: > 10 µM
[7]
  TGI: > 10 µM
[8]
  TGI: > 10 µM
[9]
  TGI: > 10 µM
[10]
  TGI: > 10 µM

## COc1cccc(N2C(=O)C3c4[nH]c5ccccc5c4C4c5ccccc5CCC4C3C2=O)c1 (centres undefined)
[1]
  TGI: 7.06 µM
[2]
  TGI: > 10 µM
[3]
  TGI: > 9.13 µM
[4]
  TGI: > 10 µM
[5]
  TGI: > 10 µM
[6]
  TGI: > 10 µM
[7]
  TGI: > 10 µM
[8]
  TGI: > 10 µM
[9]
  TGI: > 10 µM
[10]
  TGI: > 10 µM

## c1ccc(CNc2c3c(nc4ccccc24)CCC3)cc1
[1]
  TGI: 65.5 µM
[2]
  TGI: 30.8 µM
[3]
  TGI: 33.4 µM
[4]
  TGI: 33.3 µM
[5]
  TGI: 0.146 µM
[6]
  TGI: 37.1 µM
[7]
  TGI: 67.7 µM
[8]
  TGI: 39.3 µM
[9]
  TGI: 25 µM
[10]
  TGI: 34.9 µM

## CC(C)/C(Cl)=N/OC(=O)Nc1ccc(F)c(Cl)c1
[1]
  TGI: 53.3 µM
[2]
  TGI: 9.11 µM
[3]
  TGI: 4.08 µM
[4]
  TGI: 29.8 µM
[5]
  TGI: 5.23 µM
[6]
  TGI: 9.98 µM
[7]
  TGI: 45.8 µM
[8]
  TGI: 3.01 µM
[9]
  TGI: 35.4 µM
[10]
  TGI: 3.21 µM

## Oc1ccc(/C=C\c2nnc(/C=C\c3ccc(O)c(O)c3)s2)cc1O
[1]
  TGI: 28.7 µM
[2]
  TGI: 16.3 µM
[3]
  TGI: 17.7 µM
[4]
  TGI: 29.3 µM
[5]
  TGI: 2.94 µM
[6]
  TGI: 40.6 µM
[7]
  TGI: 23.2 µM
[8]
  TGI: 3.29 µM
[9]
  TGI: 15.6 µM
[10]
  TGI: 24 µM
